US7973047B2, “Beta-Secretase modulators and methods of use” (Amgen Inc., priority 2010, dated 2011)
Where two headings read alike, the source gives them in different places.

Tests used:
[1] = molecular target: BACE (Homo sapiens, UniProt P56817); test: In vitro enzymatic BACE FRET (fluorescence resonance energy transfer) assay; format: biochemical; details: BACE enzyme 0.2 nM, FRET substrate 50 nM, acetate buffer pH 4.2
Method: In Vitro Enzymatic BACE FRET (Fluorescence Resonance Energy Transfer) Assay
Assay buffer is 0.05 M acetate, pH 4.2, 10% DMSO final, 100 uM genapol (which is a nonionic detergent, below it's Critical Micelle Concentration). Enzyme (0.2 nM) is pre-incubated for one hour with inhibitors added in 1 uL of DMSO. Then the assay is started by the addition of FRET substrate (50 nM) and incubated for one hour. The FRET assay is terminated with by addition of Tris buffer, which raises the pH to neutrality, and the fluorescence is determined. The FRET substrate is a peptide with commercially available fluorophore and quencher, on opposite sides of the BACE cleavage site. Proteolytic cleavage of the FRET substrate releases quenching of fluorescence (excitation 488 nm and emission […]).

[2] = test system: Aβ40 in conditioned medium of cells stably expressing Amyloid Precursor Protein (APP); test: BACE cell-based assay: Aβ40 in conditioned medium by sandwich ELISA
How it was run: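 Aβ40 in conditioned medium was read by time-resolved fluorescence sandwich ELISA (capture pAb40, detection biotinylated 6E10, 4° C incubations). Compounds were applied for 24 h to cells stably expressing APP, at 10 doses from 100 or 10 μM top, 0.1% DMSO. IC50 derived from percent of control.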

[3] = cells stably expressing APP, 24 h incubation with compound, Aβ40 in supernatant by sandwich ELISA, read-out: IC50 values in the cell-based assay (inhibition or reduction of Aβ40)
[4] = cell based assay data of Table 4, unit inferred, read-out: Cell Assay
[5] = cell based assay data, Table 4, unit inferred, read-out: Cell Assay

Chain of BACE (P56817 46-501, species assumed): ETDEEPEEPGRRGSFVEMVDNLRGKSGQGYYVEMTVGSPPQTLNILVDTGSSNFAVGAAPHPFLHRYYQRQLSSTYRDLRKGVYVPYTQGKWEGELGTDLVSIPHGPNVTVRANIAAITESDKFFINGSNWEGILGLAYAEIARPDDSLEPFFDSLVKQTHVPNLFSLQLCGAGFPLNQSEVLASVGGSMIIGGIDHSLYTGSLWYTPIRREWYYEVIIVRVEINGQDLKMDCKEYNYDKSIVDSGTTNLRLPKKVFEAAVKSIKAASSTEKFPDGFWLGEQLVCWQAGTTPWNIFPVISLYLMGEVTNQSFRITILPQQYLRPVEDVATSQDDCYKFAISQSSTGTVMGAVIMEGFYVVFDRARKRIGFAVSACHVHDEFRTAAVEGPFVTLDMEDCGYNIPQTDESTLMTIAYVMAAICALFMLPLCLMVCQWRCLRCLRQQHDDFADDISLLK

Row | Molecule | IC50 [1] [µM] | IC50 [2, 3] [nM] | IC50 [2, 4] [nM] | IC50 [2, 5] [nM]
1 | CC(=O)N[C@@H](Cc1ccccc1)[C@H](O)CN[C@H]1CC2(CCC2)Oc2ccc(N3CCOC[C@@H]3C)cc21 [Example 139] | ≤ 5 | ≤ 5000 |  | 
2 | COCC(=O)N[C@@H](Cc1cccc(Cl)c1)[C@H](O)CN[C@H]1CC(C)(C)Oc2ccc(Br)cc21 [Example 180] | ≤ 5 |  |  | 
3 | CC(=O)N[C@@H](Cc1cccc(Cl)c1)[C@H](O)CN[C@H]1CC(C)(C)Oc2ccc(Br)cc21 [Example 182] | ≤ 5 |  |  | 
4 | CC(=O)N[C@@H](Cc1ccccc1)[C@H](O)CN[C@H]1CC2(CCC2)Oc2ccc(N3CCCC3)cc21 [Example 264] | ≤ 5 |  |  | 
5 | CC(=O)N[C@@H](Cc1ccccc1)[C@H](O)CN[C@H]1CC2(CCC2)Oc2ccc(N3C[C@@H]4C[C@H]3CO4)cc21 [Example 388] | ≤ 5 | ≤ 5000 |  | 
6 | CC(=O)N[C@@H](Cc1ccccc1)[C@H](O)CN[C@H]1CC2(CCC2)Oc2ncc(CC(F)(F)F)cc21 [Example 512, N-((1S,2R)-2-hydroxy-1-(phenylmethyl)-3-(((4′S)-6′-(2,2,2-trifluoroethyl)-3′,4′-dihydrospiro[cyclobutane-1,2′-pyrano[2,3-b]pyridin]-4′-yl)amino)propyl)acetamide] | ≤ 5 | ≤ 5000 |  | 
7 | CC(=O)N[C@@H](Cc1cccc(F)c1)[C@H](O)CN[C@H]1CC2(CCC2)Oc2c1cc(CC(C)(C)C)nc2OC(C)C [Example 610, N-((1S,2R)-3-(((4′S)-6′-(2,2-dimethylpropyl)-8′-((1-methylethyl)oxy)-3′,4′-dihydrospiro[cyclobutane-1,2′-pyrano[2,3-c]pyridin]-4′-yl)amino)-1-((3-fluorophenyl)methyl)-2-hydroxypropyl)acetamide] | ≤ 5 |  | 17.2 | 
8 | C=CC[C@H](NC(C)=O)[C@H](O)CN[C@H]1CC2(CCC2)Oc2ncc(CC(C)(C)C)cc21 [Example 736, N-((1S)-1-((1R)-2-(((4′S)-6′-(2,2-dimethylpropyl)-3′,4′-dihydrospiro[cyclobutane-1,2′-pyrano[2,3-b]pyridin]-4′-yl)amino)-1-hydroxyethyl)-3-buten-1-yl)acetamide] | ≤ 5 |  |  | 34
9 | N-((1S,2R)-3-(((4R)-6-(2,2-dimethylpropyl)-2,2-dimethyl-1,2,3,4-tetrahydro-4-quinolinyl)amino)-2-hydroxy-1-(phenylmethyl)propyl)acetamide N-((1S,2R)-3-(((4S)-6-(2,2-dimethylpropyl)-2,2-dimethyl-1,2,3,4-tetrahydro-4-quinolinyl)amino)-2-hydroxy-1-(phenymethyl)propyl)acetamide [compound 689] |  |  | 72.8 | 
10 | N-((1S,2R)-3-(((4′S)-6′-(2,2-dimethylpropyl)-3′,4′-dihydrospiro[cyclopropane-1,2′-pyrano[2,3-b]pyridin]-4′-yl)amino)-1-((4-fluoro-3-methylphenyl)methyl)-2-hydroxypropyl)acetamide [compound 550] |  |  | 20.3 | 
11 | N-((1S,2R)-3-(((4′S)-6′-bromo-3′,4′-dihydrospiro[cyclobutane-1,2′-pyrano[2,3-b]pyridin]-4′-yl)amino)-1-((4-fluorophenyl)methyl)-2-hydroxypropyl)acetamide [compound 843] |  |  |  | 503
